Assay results: patent US10919785B2, “Hydraulic conveyor of floating objects provided with a device for sanitising conveying composition, plant provided with such a conveyor and sanitising method” (MAF AGROBOTIC, priority 2016, dated 2021)
Where two headings read alike, the source gives them in different places.

Tests used:
[1] = format: physicochemical; conditions: 19 seconds
From the text: A hydraulic conveyor of a plant for sorting and packaging apples containing a volume of 90 m^3 of water as composition for conveying Ariane, Rosy Glow and Pink Lady apples comprises a sanitising device in accordance with the invention formed of six photolysis chambers mounted in series, each chamber comprising five fluorescent tubes having an individual power of 200 W. The flow rate of the composition for conveying apples in the sanitising device is 36 m^3/h. It has been observed that the plurality of photolysis chambers mounted in series allows a rate of degradation of 96% of the initial boscalid to be achieved with a flow rate of the composition to be treated of 36 m^3/h and for an average residence time of the conveying composition in the sanitising device in the order of 19 seconds.

[2] = Example 3: UV/hydrogen peroxide sanitising of 90 m^3 apple conveying water, six photolysis chambers in series; format: physicochemical
From the text: A hydraulic conveyor of a plant for sorting and packaging apples is selected containing a volume of 90 m^3 of water as composition for conveying Ariane, Rosy Glow and Pink Lady apples. A flow rate of conveying composition of 36 m^3/h is established in the external circuit and a flow rate of photoreactive composition of […] is established, the photoreactive composition being an aqueous solution of hydrogen peroxide at an initial concentration of 400 g/l. Under these flow conditions, all of the volume of the conveying composition of the hydraulic conveyor is theoretically treated within 2.5 hours. The composition at the inlet of the sanitising device has an initial hydrogen peroxide proportion in the order of 3 ppm sufficient to allow the decontamination of the composition at the outlet of the sanitising device formed of six photolysis chambers mounted in series, each chamber comprising five fluorescent tubes with an individual power of 200 W.
The results obtained are shown in Table 2 hereinafter in which the concentration values of boscalid from the apples conveyed with the composition to be sanitised at the inlet of the sanitising device (EC) and at the outlet of sanitising device (SC) are given in μg/l. The column SE/EC represents the ratio multiplied by 100 of the boscalid concentration at the outlet of the sixth chamber of the photolysis tank to the boscalid concentration at the inlet of the photolysis tank (EC). The column C/C0 represents the ratio of the boscalid concentration measured at the inlet of the sanitising device over time to the initial boscalid concentration (t=0).

[3] = format: physicochemical
Experimental: A hydraulic conveyor of a plant for sorting and packaging apples is selected containing a volume of 90 m^3 of a conveying composition containing “BELLIS” at a concentration of 50 m g/l (and boscalid at a concentration of 22 μg/l). A flow rate of the conveying composition of 36 m^3/h is established in the external circuit using the circulation pump 14 and a flow rate of photoreactive composition of 270 cm^3/h is established using the distribution pump 19, the photoreactive composition being an aqueous solution of hydrogen peroxide at an initial concentration of 400 g/l, i.e. 108 g or pure hydrogen peroxide. Under these conveying composition flow conditions, all of the volume of the conveying composition contained in the plant is theoretically treated within 2.5 hours. The composition to be sanitised obtained at the inlet of the sanitising device thus has an initial hydrogen peroxide proportion in the order of 3 ppm and is sufficient to allow the decontamination of the composition to be sanitised at the outlet of the sanitising device formed of 6 photolysis chambers mounted in series, each chamber comprising five fluorescent tubes with an individual power of 200 W.
The results obtained are shown in Table 1 hereinafter in which the concentration values of boscalid in the composition to be sanitised at the inlet of the photolysis tank (EC), at the outlet of the third chamber (S3E) of the photolysis tank and at the outlet of the sixth chamber (S6E) of the photolysis tank are given in μg/l. The column S6E/EC represents the ratio multiplied by 100 of the boscalid concentration at the outlet of the sixth chamber (S6E) of the photolysis tank to the boscalid concentration at the inlet of the photolysis tank (EC). The column C/C0 represents the ratio of the boscalid concentration measured at the inlet of the photolysis tank over time to the initial boscalid concentration (t=0).

O=C(Nc1ccccc1-c1ccc(Cl)cc1)c1cccnc1Cl [boscalid]
rate of degradation of the initial boscalid [1]: 96%
boscalid concentration at the inlet of the sanitising device (EC) ([2]; time 0 hours): 2.83 µg/L
percent boscalid removed between inlet and outlet of the sanitising device (100 x (1 - SC/EC)) ([2]; time 0 hours): 100%
boscalid concentration at the inlet of the sanitising device (EC) ([2]; time 4 hours): 4.76 µg/L
boscalid concentration at the outlet of the sanitising device (SC) ([2]; time 4 hours): 0.065 µg/L
percent boscalid removed between inlet and outlet of the sanitising device (100 x (1 - SC/EC)) ([2]; time 4 hours): 98.6%
boscalid concentration at the inlet of the sanitising device (EC) ([2]; time 7 hours): 2.84 µg/L
boscalid concentration at the outlet of the sanitising device (SC) ([2]; time 7 hours): 0.206 µg/L
percent boscalid removed between inlet and outlet of the sanitising device (100 x (1 - SC/EC)) ([2]; time 7 hours): 92.8%
C/C0 (inlet boscalid concentration over initial concentration) ([2]; time 7.1 hours): 1
boscalid concentration at the inlet of the sanitising device (EC) ([2]; time 7.1 hours): 4.19 µg/L
percent boscalid removed between inlet and outlet of the sanitising device (100 x (1 - SC/EC)) ([2]; time 7.1 hours): 100%
C/C0 (inlet boscalid concentration over initial concentration) ([2]; time 10.5 hours): 0.41
boscalid concentration at the inlet of the sanitising device (EC) ([2]; time 10.5 hours): 1.73 µg/L
boscalid concentration at the outlet of the sanitising device (SC) ([2]; time 10.5 hours): 0.062 µg/L
percent boscalid removed between inlet and outlet of the sanitising device (100 x (1 - SC/EC)) ([2]; time 10.5 hours): 96.4%
C/C0 (inlet boscalid concentration over initial concentration) ([2]; time 12.5 hours): 0.32
boscalid concentration at the inlet of the sanitising device (EC) ([2]; time 12.5 hours): 1.35 µg/L
percent boscalid removed between inlet and outlet of the sanitising device (100 x (1 - SC/EC)) ([2]; time 12.5 hours): 100%
C/C0 (inlet boscalid concentration over initial concentration) ([2]; time 14.75 hours): 0.41
boscalid concentration at the inlet of the sanitising device (EC) ([2]; time 14.75 hours): 1.71 µg/L
boscalid concentration at the outlet of the sanitising device (SC) ([2]; time 14.75 hours): 0.058 µg/L
percent boscalid removed between inlet and outlet of the sanitising device (100 x (1 - SC/EC)) ([2]; time 14.75 hours): 96.6%
C/C0 (inlet boscalid concentration over initial concentration) ([2]; time 17.25 hours): 0.28
boscalid concentration at the inlet of the sanitising device (EC) ([2]; time 17.25 hours): 1.18 µg/L
boscalid concentration at the outlet of the sanitising device (SC) ([2]; time 17.25 hours): 0.040 µg/L
percent boscalid removed between inlet and outlet of the sanitising device (100 x (1 - SC/EC)) ([2]; time 17.25 hours): 96.6%
C/C0 (inlet boscalid concentration over initial concentration) ([2]; time 19.25 hours): 0.45
boscalid concentration at the inlet of the sanitising device (EC) ([2]; time 19.25 hours): 1.88 µg/L
percent boscalid removed between inlet and outlet of the sanitising device (100 x (1 - SC/EC)) ([2]; time 19.25 hours): 100%
C/C0 (inlet boscalid concentration over initial concentration) ([2]; time 22.75 hours): 0.25
boscalid concentration at the inlet of the sanitising device (EC) ([2]; time 22.75 hours): 1.07 µg/L
boscalid concentration at the outlet of the sanitising device (SC) ([2]; time 22.75 hours): 0.064 µg/L
percent boscalid removed between inlet and outlet of the sanitising device (100 x (1 - SC/EC)) ([2]; time 22.75 hours): 94%
C/C0 (inlet boscalid concentration over initial concentration) ([2]; time 24.75 hours): 0.15
boscalid concentration at the inlet of the sanitising device (EC) ([2]; time 24.75 hours): 0.64 µg/L
boscalid concentration at the outlet of the sanitising device (SC) ([2]; time 24.75 hours): 0.057 µg/L
percent boscalid removed between inlet and outlet of the sanitising device (100 x (1 - SC/EC)) ([2]; time 24.75 hours): 91.2%
C/C0 (inlet boscalid concentration over initial concentration) ([2]; time 28.75 hours): 0.16
boscalid concentration at the inlet of the sanitising device (EC) ([2]; time 28.75 hours): 0.66 µg/L
boscalid concentration at the outlet of the sanitising device (SC) ([2]; time 28.75 hours): 0.039 µg/L
percent boscalid removed between inlet and outlet of the sanitising device (100 x (1 - SC/EC)) ([2]; time 28.75 hours): 94%
C/C0 (inlet boscalid concentration over initial concentration) ([2]; time 29.75 hours): 0.22
boscalid concentration at the inlet of the sanitising device (EC) ([2]; time 29.75 hours): 0.93 µg/L
percent boscalid removed between inlet and outlet of the sanitising device (100 x (1 - SC/EC)) ([2]; time 29.75 hours): 100%
C/C0 (inlet boscalid concentration over initial concentration) ([2]; time 32.25 hours): 0.19
boscalid concentration at the inlet of the sanitising device (EC) ([2]; time 32.25 hours): 0.79 µg/L
boscalid concentration at the outlet of the sanitising device (SC) ([2]; time 32.25 hours): 0.040 µg/L
percent boscalid removed between inlet and outlet of the sanitising device (100 x (1 - SC/EC)) ([2]; time 32.25 hours): 95%
C/C0 (inlet boscalid concentration over initial concentration) ([2]; time 34.75 hours): 0.17
boscalid concentration at the inlet of the sanitising device (EC) ([2]; time 34.75 hours): 0.73 µg/L
boscalid concentration at the outlet of the sanitising device (SC) ([2]; time 34.75 hours): 0.043 µg/L
percent boscalid removed between inlet and outlet of the sanitising device (100 x (1 - SC/EC)) ([2]; time 34.75 hours): 94.1%
rate of degradation between the inlet and outlet of the photolysis tank ([3]; 22 μg/l): greater than 90%
boscalid concentration at the inlet of the photolysis tank (EC) ([3]; time 0 hours): 21.43 µg/L
C/C0 (inlet boscalid concentration over initial concentration) ([3]; time 1.25 hours): 0.79
S6E/EC ([3]; time 1.25 hours): 92%
boscalid concentration at the inlet of the photolysis tank (EC) ([3]; time 1.25 hours): 16.64 µg/L
boscalid concentration at the outlet of the sixth chamber (S6E) ([3]; time 1.25 hours): 1.28 µg/L
C/C0 (inlet boscalid concentration over initial concentration) ([3]; time 2.5 hours): 0.73
S6E/EC ([3]; time 2.5 hours): 94%
boscalid concentration at the inlet of the photolysis tank (EC) ([3]; time 2.5 hours): 15.68 µg/L
boscalid concentration at the outlet of the sixth chamber (S6E) ([3]; time 2.5 hours): 0.99 µg/L
boscalid concentration at the outlet of the third chamber (S3E) ([3]; time 2.5 hours): 3.96 µg/L
C/C0 (inlet boscalid concentration over initial concentration) ([3]; time 3.75 hours): 0.73
S6E/EC ([3]; time 3.75 hours): 94%
boscalid concentration at the inlet of the photolysis tank (EC) ([3]; time 3.75 hours): 15.56 µg/L
boscalid concentration at the outlet of the sixth chamber (S6E) ([3]; time 3.75 hours): 0.91 µg/L
boscalid concentration at the outlet of the third chamber (S3E) ([3]; time 3.75 hours): 3.38 µg/L
C/C0 (inlet boscalid concentration over initial concentration) ([3]; time 5 hours): 0.66
S6E/EC ([3]; time 5 hours): 94%
boscalid concentration at the inlet of the photolysis tank (EC) ([3]; time 5 hours): 14.06 µg/L
boscalid concentration at the outlet of the sixth chamber (S6E) ([3]; time 5 hours): 0.56 µg/L
boscalid concentration at the outlet of the third chamber (S3E) ([3]; time 5 hours): 2.71 µg/L
C/C0 (inlet boscalid concentration over initial concentration) ([3]; time 7.5 hours): 0.38
boscalid concentration at the inlet of the photolysis tank (EC) ([3]; time 7.5 hours): 8.25 µg/L
boscalid concentration at the outlet of the third chamber (S3E) ([3]; time 7.5 hours): 1.78 µg/L
elimination from the conveying composition of the hydraulic conveyor ([3]; within 7.5 hours): 62%
